Test results as given in ChEMBL document CHEMBL4825686, “HTS-based discovery and optimization of novel positive allosteric modulators of the α7 nicotinic acetylcholine receptor” (Eur J Med Chem, 2021).
In brackets after ≈: the same amount, converted by molar mass.

Experiments:
[1] = target: Neuronal acetylcholine receptor subunit alpha-7 (Homo sapiens, UniProt P36544); assay: Positive allosteric modulator activity at human alpha7 nAChR expressed in Flp-In-HEK293 cells co-expressing RIC-3 assessed as potentiation of PNU282987-induced calcium influx measured after 10 mins by FLIPR assay; assay type: cell-based, Flp-In-293
Neuronal acetylcholine receptor subunit alpha-7, sequence (P36544 whole entry): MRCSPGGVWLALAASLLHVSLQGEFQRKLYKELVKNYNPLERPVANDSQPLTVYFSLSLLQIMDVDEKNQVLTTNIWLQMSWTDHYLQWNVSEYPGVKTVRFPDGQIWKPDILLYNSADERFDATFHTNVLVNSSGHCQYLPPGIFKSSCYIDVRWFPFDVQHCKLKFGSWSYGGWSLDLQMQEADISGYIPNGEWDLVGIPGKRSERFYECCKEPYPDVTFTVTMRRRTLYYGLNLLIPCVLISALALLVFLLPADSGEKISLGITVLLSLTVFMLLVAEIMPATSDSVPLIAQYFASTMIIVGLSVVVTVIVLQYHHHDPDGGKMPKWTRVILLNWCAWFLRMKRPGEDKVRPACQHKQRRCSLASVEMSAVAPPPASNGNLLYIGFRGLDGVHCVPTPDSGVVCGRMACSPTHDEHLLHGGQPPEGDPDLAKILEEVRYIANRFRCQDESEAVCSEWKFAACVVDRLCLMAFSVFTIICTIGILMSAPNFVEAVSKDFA

[2] = Mutagenicity in Salmonella typhimurium TA100 in presence of rat liver S9 fraction by AMES test; assay type: toxicity, subcellular; details: salmonella enterica subsp. enterica serovar typhimurium
[3] = Kinetic solubility of compound; assay type: physicochemical; details: read-out: Kinetic_solubility
[4] = Metabolic stability in human liver microsomes assessed as intrinsic clearance at 1 uM measured per mg protein upto 40 mins; assay type: ADME, Microsome; details: read-out: CLH
[5] = Metabolic stability in Wistar rat liver microsomes assessed as intrinsic clearance at 1 uM measured per mg protein upto 40 mins; assay type: ADME, Microsome; details: read-out: CLH
[6] = Metabolic stability in NMRI mouse liver microsomes assessed as intrinsic clearance at 1 uM measured per mg protein upto 40 mins; assay type: ADME, Microsome; details: read-out: CLH
[7] = Mutagenicity in Salmonella typhimurium TA1535 in presence of rat liver S9 fraction by AMES test; assay type: toxicity, subcellular; details: salmonella enterica subsp. enterica serovar typhimurium
[8] = Mutagenicity in Salmonella typhimurium TA98 in presence of rat liver S9 fraction by AMES test; assay type: toxicity, subcellular; details: salmonella enterica subsp. enterica serovar typhimurium
[9] = Mutagenicity in Salmonella typhimurium TA98 in absence of rat liver S9 fraction by AMES test; assay type: toxicity; details: salmonella enterica subsp. enterica serovar typhimurium
[10] = Mutagenicity in Salmonella typhimurium TA100 in absence of rat liver S9 fraction by AMES test; assay type: toxicity; details: salmonella enterica subsp. enterica serovar typhimurium
[11] = Mutagenicity in Salmonella typhimurium TA1537 in presence of rat liver S9 fraction by AMES test; assay type: toxicity, subcellular; details: salmonella enterica subsp. enterica serovar typhimurium
[12] = Mutagenicity in Salmonella typhimurium TA1537 in absence of rat liver S9 fraction by AMES test; assay type: toxicity; details: salmonella enterica subsp. enterica serovar typhimurium
[13] = Mutagenicity in Escherichia coli WP2 uvrA in presence of rat liver S9 fraction by AMES test; assay type: toxicity, subcellular
[14] = Mutagenicity in Escherichia coli WP2 uvrA in absence of rat liver S9 fraction by AMES test; assay type: toxicity
[15] = Mutagenicity in Salmonella typhimurium TA1535 in absence of rat liver S9 fraction by AMES test; assay type: toxicity; details: salmonella enterica subsp. enterica serovar typhimurium

Cc1ccc(CN2CCN(C(=O)c3nnc(-c4cccc5c4ccn5C)o3)CC2)cc1
EC50 ([1]; read-out: EC50): 0.66 µM

Cc1ccc(Oc2ccc(C(=O)NCc3ccc4c(ccn4C)c3)cc2)cc1
EC50 ([1]; read-out: EC50): 0.04 µM

Cc1ccc(CN2CCN(C(=O)C(=O)Nc3ccc4c(c3)c(F)cn4C)CC2)cc1
Activity [2]: Toxic
solubility kinetic [3]: 16.5 µM (≈ 6.74 µg/mL)
EC50 ([1]; read-out: EC50): 0.085 µM
microsomal CLint at 1 µM [4]: 21 µL/min/mg
microsomal CLint at 1 µM [5]: 192 µL/min/mg
microsomal CLint at 1 µM [6]: 214 µL/min/mg
Activity [7]: Toxic
Activity [8]: Toxic
Activity [9]: Toxic
Activity [10]: Toxic
Activity [11]: Toxic
Activity [12]: Toxic
Activity [13]: Toxic
Activity [14]: Toxic
Activity [15]: Toxic

COc1ccc(OCC2CN(C(=O)NCc3ccc4c(ccn4C)c3)C2)cc1
EC50 ([1]; read-out: EC50): 0.06 µM

Cn1ccc2cc(CNC(=O)N3CC(COc4ccc(F)cc4)C3)ccc21
EC50 ([1]; read-out: EC50): 0.22 µM

Cc1ccc(OCC2CN(C(=O)NCc3ccc4c(ccn4C)c3)C2)cc1
EC50 ([1]; read-out: EC50): 0.04 µM

Cc1ccc(CN2CCN(C(=O)C(=O)NCc3ccc4c(ccn4C)c3)CC2)cc1
EC50 ([1]; flp-in-293): Not Active

Cc1ccc(CN2CCN(C(=O)C(=O)Nc3ccc4c(F)cn(C)c4c3)CC2)cc1
Activity [2]: Toxic
solubility kinetic [3]: 12.5 µM (≈ 5.11 µg/mL)
EC50 ([1]; read-out: EC50): 1.4 µM
Activity [7]: Toxic
Activity [8]: Toxic
Activity [9]: Toxic
Activity [10]: Toxic
Activity [11]: Toxic
Activity [12]: Toxic
Activity [13]: Toxic
Activity [14]: Toxic
Activity [15]: Toxic

Cn1ccc2cc(CNC(=O)N3CC(COc4ccccc4)C3)ccc21
EC50 ([1]; read-out: EC50): 0.18 µM

Cc1ccc(CN2CCN(C(=O)C(=O)Nc3ccn4cccc4c3)CC2)cc1
solubility kinetic [3]: 5.6 µM (≈ 2.11 µg/mL)
EC50 ([1]; read-out: EC50): 3.3 µM

Cc1ccc(OC2CCN(C(=O)C(=O)Nc3ccc4[nH]ccc4c3)CC2)cc1
EC50 ([1]; read-out: EC50): 0.26 µM

Cc1ccc(CN2CCN(C(=O)C(=O)Nc3ccc4c(c3)CCN4C)CC2)cc1
solubility kinetic [3]: 95 µM (≈ 37.3 µg/mL)
EC50 ([1]; read-out: EC50): 0.82 µM
microsomal CLint at 1 µM [4]: 71 µL/min/mg
microsomal CLint at 1 µM [5]: 23 µL/min/mg
microsomal CLint at 1 µM [6]: 18 µL/min/mg

Cc1ccc(Oc2ccc(C(=O)C(=O)Nc3ccc4c(ccn4C)c3)cc2)cc1
solubility kinetic [3]: 2 µM (≈ 0.769 µg/mL)
EC50 ([1]; read-out: EC50): 0.06 µM
microsomal CLint at 1 µM [4]: 34 µL/min/mg
microsomal CLint at 1 µM [5]: 48 µL/min/mg
microsomal CLint at 1 µM [6]: 46 µL/min/mg

Cc1ccc(CN2CCN(C(=O)C(=O)Nc3cnc4c(c3)c(F)cn4C)CC2)cc1
EC50 ([1]; read-out: EC50): 0.21 µM
microsomal CLint at 1 µM [4]: 12 µL/min/mg
microsomal CLint at 1 µM [5]: 41 µL/min/mg
microsomal CLint at 1 µM [6]: 39 µL/min/mg

Cc1ccc(CN2CCN(C(=O)C(=O)Nc3cc4ccn(C)c4cc3F)CC2)cc1
Activity [2]: Toxic
solubility kinetic [3]: 47.1 µM (≈ 19.2 µg/mL)
EC50 ([1]; read-out: EC50): 0.9 µM
Activity [7]: Toxic
Activity [8]: Toxic
Activity [9]: Toxic
Activity [10]: Toxic
Activity [11]: Toxic
Activity [12]: Toxic
Activity [13]: Toxic
Activity [14]: Toxic
Activity [15]: Toxic

Cc1ccc(O[C@H]2CC[C@H](C(=O)C(=O)Nc3ccc4c(ccn4C)c3)CC2)cn1
EC50 ([1]; read-out: EC50): 0.67 µM

Cc1ccc(OC2CCN(C(=O)NCc3ccc4c(ccn4C)c3)CC2)cc1
EC50 ([1]; read-out: EC50): 0.21 µM

Cn1nc(-c2ccc3c(ccn3C)c2)cc1C(=O)N1CCN(Cc2ccc(Cl)cc2)CC1
EC50 ([1]; read-out: EC50): 2.5 µM

Cn1ccc2cc(NC(=O)C(=O)c3cnc(Oc4ccc(Cl)cc4)s3)ccc21
solubility kinetic [3]: 0.1 µM (≈ 0.0412 µg/mL)
EC50 ([1]; flp-in-293): Not Active

Cc1ccc(CN2CCCC(C(=O)NCc3ccc4c(ccn4C)c3)C2)cc1 (stereo unspecified)
EC50 ([1]; flp-in-293): Not Active

Cc1ccc(Oc2cnc(C(=O)C(=O)Nc3ccc4c(ccn4C)c3)cn2)cc1
solubility kinetic [3]: 10 µM (≈ 3.86 µg/mL)
EC50 ([1]; read-out: EC50): 0.65 µM
microsomal CLint at 1 µM [4]: 90 µL/min/mg
microsomal CLint at 1 µM [5]: 127 µL/min/mg
microsomal CLint at 1 µM [6]: 156 µL/min/mg

Cc1ccc(CN2CCN(C(=O)NCc3ccc4c(ccn4C)c3)CC2)cc1
solubility kinetic [3]: 18.9 µM (≈ 7.12 µg/mL)
EC50 ([1]; read-out: EC50): 0.49 µM
microsomal CLint at 1 µM [4]: 24 µL/min/mg

Cc1ccc(CC2CCN(C(=O)C(=O)Nc3ccc4[nH]c(C)cc4c3)CC2)cc1
EC50 ([1]; flp-in-293): Not Active

Cn1ccc2cc(CNC(=O)N3CC(COc4ccc(Cl)cc4)C3)ccc21
EC50 ([1]; read-out: EC50): 0.055 µM

Cc1ccc(OCC2CN(C(=O)C(=O)Nc3ccc4c(ccn4C)c3)C2)cc1
EC50 ([1]; read-out: EC50): 3 µM

Cc1ccc(OC2CN(C(=O)NCc3ccc4c(ccn4C)c3)C2)cc1
EC50 ([1]; read-out: EC50): 0.62 µM

Cc1ccc(CN2CCN(C(=O)C(=O)Nc3ccc4c(c3)c(Cl)cn4C)CC2)cc1
Activity [2]: Toxic
solubility kinetic [3]: 6.8 µM (≈ 2.89 µg/mL)
EC50 ([1]; read-out: EC50): 0.42 µM
Activity [7]: Toxic
Activity [8]: Toxic
Activity [9]: Toxic
Activity [10]: Toxic
Activity [11]: Toxic
Activity [12]: Toxic
Activity [13]: Toxic
Activity [14]: Toxic
Activity [15]: Toxic

Cn1ccc2cc(CNC(=O)N3CC(COc4ccc(OC(F)(F)F)cc4)C3)ccc21
EC50 ([1]; read-out: EC50): 0.025 µM

Cc1ccc(CC2CCN(C(=O)C(=O)Nc3ccc4[nH]ccc4c3)CC2)cc1
EC50 ([1]; read-out: EC50): 0.91 µM

Cc1ccc(OC2CCN(C(=O)NCc3ccc4c(ccn4C)c3)C2)cc1 (stereo unspecified)
EC50 ([1]; read-out: EC50): 0.17 µM

Cc1ccc(CN2CCN(C(=O)C(=O)Nc3cc(F)c4[nH]ccc4c3)CC2)cc1
Activity [2]: Toxic
solubility kinetic [3]: 42.7 µM (≈ 16.8 µg/mL)
EC50 ([1]; read-out: EC50): 0.11 µM
microsomal CLint at 1 µM [4]: 17 µL/min/mg
microsomal CLint at 1 µM [5]: 130 µL/min/mg
microsomal CLint at 1 µM [6]: 151 µL/min/mg
Activity [7]: Toxic
Activity [8]: Toxic
Activity [9]: Toxic
Activity [10]: Toxic
Activity [11]: Toxic
Activity [12]: Toxic
Activity [13]: Toxic
Activity [14]: Toxic
Activity [15]: Toxic

Cc1ccc(CN2CCC(c3nnc(C(=O)Nc4ccc5c(ccn5C)c4)o3)CC2)cc1
EC50 ([1]; flp-in-293): Not Active

Cc1ccc(OC2CC3CCC(C2)N3C(=O)C(=O)Nc2ccc3[nH]ccc3c2)cc1 (stereo unspecified)
solubility kinetic [3]: 8.1 µM (≈ 3.27 µg/mL)
EC50 ([1]; flp-in-293): Not Active
microsomal CLint at 1 µM [4]: 12 µL/min/mg
microsomal CLint at 1 µM [5]: 61 µL/min/mg
microsomal CLint at 1 µM [6]: 40 µL/min/mg

Cc1ccc(CN2CCC(NC(=O)Nc3ccc4c(ccn4C)c3)CC2)cc1
EC50 ([1]; flp-in-293): Not Active

Cc1ccc(CN2CCC(C(=O)C(=O)Nc3ccc4c(ccn4C)c3)CC2)cc1
EC50 ([1]; read-out: EC50): 0.6 µM

COCC(C(=O)Nc1ccc2c(ccn2C)c1)N1CCC(Oc2ccc(C)cc2)CC1 (stereo unspecified)
EC50 ([1]; flp-in-293): Not Active

Cc1ccc(OCC2CCN(C(=O)NCc3ccc4c(ccn4C)c3)C2)cc1 (stereo unspecified)
EC50 ([1]; read-out: EC50): 0.28 µM

Cn1ccc2cc(CNC(=O)N3CC(COc4ccc(C#N)cc4)C3)ccc21
EC50 ([1]; read-out: EC50): 0.35 µM

Cc1ccc(CN2C[C@@H](C)N(C(=O)C(=O)Nc3ccc4[nH]ccc4c3)C[C@@H]2C)cc1
solubility kinetic [3]: 14.9 µM (≈ 6.03 µg/mL)
EC50 ([1]; flp-in-293): Not Active
microsomal CLint at 1 µM [4]: 2 µL/min/mg

Cn1ccc2cc(CNC(=O)N3CC(COc4ccc(C(F)(F)F)cc4)C3)ccc21
EC50 ([1]; read-out: EC50): 0.08 µM

Cc1ccc(CN2CCN(C(=O)C(=O)Nc3cnc4c(ccn4C)c3)CC2)cc1
solubility kinetic [3]: 47.4 µM (≈ 18.6 µg/mL)
EC50 ([1]; read-out: EC50): 0.4 µM
microsomal CLint at 1 µM [4]: 0.3 µL/min/mg
microsomal CLint at 1 µM [5]: 56 µL/min/mg
microsomal CLint at 1 µM [6]: 46 µL/min/mg
